Patent USRE33699E, “Growth hormone-releasing factor analogs” (International Minerals & Chemical Corp., priority 1990, dated 1991)
Square brackets hold non-standard residues; d marks the D form. Peptide text beside a SMILES is read from it. Nle = CCCC[C@H](N)C(=O)O

Test system: rat pituitary cells
Experiment: Bioassay of hGRF analogs: stimulation of growth hormone release in rat pituitary cells in tissue culture
Assay type: cell-based
Excerpt: The assay for biological activity, which is based on the ability to stimulate release of growth hormone in rat pituitary cells in tissue culture, has been described in detail (Culler, M. D.; Kenjo, T.: Obara, N.; Arimuar, A., Stimulation of cAMP. Accumulation by Human Pancreatic GH-Releasing Factor(1-44). Am. J. Physiol. 1984, 247 (Endocrinol.Metab. 10). E609-E615.
ALLFIT, the 4-parameter logistic curve fitting program available from the Biomedical Computer Technology Information Center, Vanderbilt Medical Center, Nashville Tenn., was used to determine ED50 and maximal stimulated values from the data. In several instances, the amount of GH released reached a maximum value and decreased with further increasing doses of the hGRF analogs. To simplify the data analysis, these values were not used in the calculations. The calculated maximal responses, the doses of the analog required to release the amount of GH released at the ED50 of the standard (hGRF) and the potencies of the analogs relative to hGRF, are given in Table 2. Generally all novel analogs were fully active and were able to stimulate the release of growth hormone with maximal values of GH release being within 80% of the value for natural hGRF.

With `CCCC[C@H](NC(=O)[C@@H](NC(=O)[C@H](CC(=O)O)NC(=O)[C@H](CCC(N)=O)NC(=O)[C@H](CC(C)C)NC(=O)[C@H](CC(C)C)NC(=O)[C@H](CCCCN)NC(=O)[C@H](CCCNC(=N)N)NC(=O)[C@H](C)NC(=O)[C@H](CO)NC(=O)[C@H](CC(C)C)NC(=O)[C@H](CCC(N)=O)NC(=O)CNC(=O)[C@H](CC(C)C)NC(=O)[C@@H](NC(=O)[C@H](CCCCN)NC(=O)[C@H](CCCNC(=N)N)NC(=O)[C@H](Cc1ccc(O)cc1)NC(=O)[C@H](CO)NC(=O)[C@H](CC(N)=O)NC(=O)[C@@H](NC(=O)[C@H](Cc1ccccc1)NC(=O)[C@@H](NC(=O)[C@H](C)NC(=O)[C@H](CC(N)=O)NC(=O)[C@H](C)NC(=O)[C@@H](N)Cc1ccc(O)cc1)[C@@H](C)CC)[C@@H](C)O)C(C)C)[C@@H](C)CC)C(=O)N[C@@H](CO)C(=O)N[C@@H](CCCNC(=N)N)C(=O)N[C@@H](CCC(N)=O)C(=O)N[C@@H](CCC(N)=O)C(N)=O` [[Asn^3, Nle^27]-hGRF(1-31)--NH2] (H-YANAIFTNSYRKVLGQLSARKLLQDI[Nle]SRQQ-NH2) the “Dose Needed to Release 2.01 μg/ml of GH” value (2.01 μg/ml = GH released at the ED50 of hGRF, from ALLFIT curves) was 0.58 nM, the Potency ((ED50 of hGRF)/(Dose required to give same response as ED50 of hGRF)) was 55% and the “Relative Maximum Activity (% of hGRF)” value (from ALLFIT curves) was 93 % of hGRF.
